Results reported in patent US7342018B2, “Urokinase inhibitors and uses thereof” (Wilex AG, priority 1998, dated 2008).
“And” between values parts separate entries of the source, which are not always exact repeats. Equal entries are not always repeated. Where two headings read alike, the source gives them in different places.

How the values were obtained:
Factor Xa = Factor Xa (Homo sapiens, UniProt P00742); assay: In vitro inhibition of serine proteases: factor Xa; format: biochemical
Method: (§1) Ki values were determined according to Dixon by linear regression using a computer program.

[1] = target: Sc-tPA (single chain tPA) (Homo sapiens, UniProt P00750); assay: In vitro inhibition of serine proteases: Sc-tPA; format: biochemical
Method: (§2) To determine the inhibitory activity, 200 μl of Tris buffer (0.05 mol/l, containing the inhibitor, 0.154 mol/l NaCl, 5% ethanol pH 8.0), 25 μl of substrate (Pefachrome UK or Bz-βAla-Gly-Arg-pNA in H2O; Pentapharm Ltd., Basle, Switzerland) and 50 μl of sc-urokinase (Ribosepharm GmbH, Haan, Germany) were incubated at 25° C. After 3 min the reaction was stopped by adding 25 μl of acetic acid (50%), and the absorption at 405 nm was determined by means of a Microplate Reader (MR 5000, Dynatech, Denkendorf, Germany). Ki values were determined according to Dixon by linear regression using a computer program. The Ki values are the mean values of at least three determinations with a standard deviation of less than 25%.
The inhibition activities of the enzymes used were determined according to the principle described in Example 3.

Glandular kallikrein = Glandular kallikrein (Homo sapiens, UniProt P06870); assay: In vitro inhibition of serine proteases: glandular kallikrein; format: biochemical
Method: as §1

Plasmin = target: T1, Plasmin (Homo sapiens, UniProt P00747); assay: In vitro inhibition of serine proteases: plasmin; format: biochemical
T1 construct: uPA mediates the proteolytic cleavage of plasminogen to give plasmin
Method: as §1

[2] = tested on: pancreatic adenocarcinoma CA20948; assay: Pancreatic carcinoma model in rats; format: in vivo, rat; conditions: for mass of the tumor-containing pancreas, reduced by % / masses of the subcutaneous tumors, reduced by %: vs vehicle-treated group
Method: Fragments of the transplantable and metastasizing pancreatic adenocarcinoma CA20948 from rats were explanted from donor animals. After cell isolation, equal amounts of suspended tumor cells together with 2 mg of Matrigel were subcutaneously implanted into each of the acceptor animals, male 10 week-old Lewis rats (n=9). The treatment procedure and also the composition of the therapy groups were the same as under A).
The experiments described in sections A and B were repeated with the inhibitor administered in a different way. For this, the inhibitor was administered subcutaneously in the breast carcinoma model (n=9) and intraperitoneally in the pancreatic adenocarcinoma model (n=8) without changing the daily dose. The results of these repeat experiments corresponded to the results already discussed, both in tendency and extent.

Urokinase (sc-urokinase) = target: T2, Urokinase (sc-urokinase) (Homo sapiens, UniProt P00749); assay: In vitro inhibition of urokinase (chromogenic substrate, Dixon Ki); format: biochemical
T2 construct: purchased Ribosepharm GmbH, Haan, Germany
Method: as §2

[3] = Biodistribution of the inhibitor in rats (HPLC of tissue extracts); format: in vivo, rat; conditions: for concentration in tracheal lymph nodes: two independent experiments, hydrochloride
Method: The biodistribution of the inhibitor was determined by two independent experiments in tissue extracts of rats which had been treated once a day with 1 mg/kg i.p. of inhibitor i.p. over a period of 5 or 10 days. For the lysis, in each case 100 mg of tissue were mechanically comminuted and mixed with 200 μl of 1% Triton X-100 in physiological NaCl solution. After adding 400 μl of ethanol, the mixture was sonicated for 1 min. The tissue extract was centrifuged at 12,000×g for 15 min. For prepurification, the supernatant was applied to a C18 Silica Reversed Phase column (Sep-Pak® cartridge C18, 1 ml Water, Eschborn, Germany), equilibrated with 1 ml of methanol and 1 ml of water, washed successively with 2×1 ml H2O, 1 ml 10% methanol, 1 ml H2O, 1 ml 5% acetonitrile, 0.04% perchloric acid and 1 ml H2O and eluted with 500 μl of 75% acetonitrile, 0.04% perchloric acid. HPLC analysis was carried out on a reversed phase C18 silica column with a 5-55% strength acetonitrile gradient containing 0.04% perchloric acid.

[4] = 1 mg/kg daily, vs naphthyl derivative and control (FIG. 5)
[5] = concluded from plasma vs tissue concentrations

T1 sequence (P00747 581-810 limits assumed, species assumed): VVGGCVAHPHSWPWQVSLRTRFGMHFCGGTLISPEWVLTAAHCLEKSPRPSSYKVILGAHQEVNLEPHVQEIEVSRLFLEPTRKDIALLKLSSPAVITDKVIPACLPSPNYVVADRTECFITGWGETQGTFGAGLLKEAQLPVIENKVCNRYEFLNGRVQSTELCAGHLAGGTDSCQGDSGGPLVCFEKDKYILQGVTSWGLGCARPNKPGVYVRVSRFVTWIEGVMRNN
T1 sequence (P00747 97-580 partner limits assumed, species assumed): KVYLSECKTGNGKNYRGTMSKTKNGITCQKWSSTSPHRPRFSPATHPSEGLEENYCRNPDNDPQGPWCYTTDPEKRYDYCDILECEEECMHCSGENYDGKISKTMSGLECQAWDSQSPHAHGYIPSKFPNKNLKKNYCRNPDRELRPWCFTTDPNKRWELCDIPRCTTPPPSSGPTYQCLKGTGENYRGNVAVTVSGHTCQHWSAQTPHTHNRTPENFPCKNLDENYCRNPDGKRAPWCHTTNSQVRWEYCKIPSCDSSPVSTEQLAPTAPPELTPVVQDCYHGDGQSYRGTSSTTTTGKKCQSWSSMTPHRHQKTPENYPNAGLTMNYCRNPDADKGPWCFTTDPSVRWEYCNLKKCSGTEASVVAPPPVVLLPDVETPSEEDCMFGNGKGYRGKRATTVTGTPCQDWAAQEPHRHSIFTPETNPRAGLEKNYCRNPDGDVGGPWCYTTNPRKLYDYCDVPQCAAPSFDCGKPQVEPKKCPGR
Glandular kallikrein, sequence (P06870 25-262): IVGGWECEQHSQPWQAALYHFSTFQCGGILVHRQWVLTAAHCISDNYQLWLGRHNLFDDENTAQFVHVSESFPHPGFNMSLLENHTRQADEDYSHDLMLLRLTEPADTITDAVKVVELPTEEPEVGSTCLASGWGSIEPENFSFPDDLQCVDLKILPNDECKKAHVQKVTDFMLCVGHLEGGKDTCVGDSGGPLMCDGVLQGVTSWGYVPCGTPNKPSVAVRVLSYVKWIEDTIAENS
Sc-tPA (single chain tPA), sequence (P00750 36-562): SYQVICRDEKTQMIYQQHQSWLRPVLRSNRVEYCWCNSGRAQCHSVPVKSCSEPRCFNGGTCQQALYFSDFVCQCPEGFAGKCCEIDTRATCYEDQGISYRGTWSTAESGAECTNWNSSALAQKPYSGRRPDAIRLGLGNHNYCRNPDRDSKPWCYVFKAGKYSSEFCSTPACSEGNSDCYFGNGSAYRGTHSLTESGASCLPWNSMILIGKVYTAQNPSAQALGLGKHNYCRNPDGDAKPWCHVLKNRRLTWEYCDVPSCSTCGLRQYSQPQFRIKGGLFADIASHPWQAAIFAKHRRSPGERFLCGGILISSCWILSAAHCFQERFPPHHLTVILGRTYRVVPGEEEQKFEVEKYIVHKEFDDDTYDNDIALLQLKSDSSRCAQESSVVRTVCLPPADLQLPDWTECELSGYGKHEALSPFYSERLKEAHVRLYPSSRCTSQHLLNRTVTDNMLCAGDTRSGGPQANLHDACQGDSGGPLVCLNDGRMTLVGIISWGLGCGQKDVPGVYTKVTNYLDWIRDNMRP
Factor Xa, sequence (P00742 235-488 limits assumed): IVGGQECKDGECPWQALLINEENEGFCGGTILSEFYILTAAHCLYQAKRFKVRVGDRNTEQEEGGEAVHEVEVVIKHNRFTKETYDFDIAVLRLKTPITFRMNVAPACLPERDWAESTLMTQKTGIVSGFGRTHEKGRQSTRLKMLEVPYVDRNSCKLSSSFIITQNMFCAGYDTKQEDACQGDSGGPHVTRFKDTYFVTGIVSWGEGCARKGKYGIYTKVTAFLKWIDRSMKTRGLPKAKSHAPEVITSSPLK
Factor Xa, sequence (P00742 41-179 partner limits assumed): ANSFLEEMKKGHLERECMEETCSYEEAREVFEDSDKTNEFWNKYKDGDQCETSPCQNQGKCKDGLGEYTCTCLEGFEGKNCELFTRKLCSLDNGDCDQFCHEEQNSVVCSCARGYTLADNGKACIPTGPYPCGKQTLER

CCOC(=O)N1CCN(C(=O)[C@H](Cc2cccc(C(=N)N)c2)NS(=O)(=O)c2c(C(C)C)cc(C(C)C)cc2C(C)C)CC1.Cl [uPA inhibitor, Nα-2,4,6-Triisopropylphenylsulfonyl-(L)-3-amidinophenylalanine 4-ethoxycarbonylpiperazide hydrochloride]
Ki (Factor Xa): 1.7 µM | Ki [1]: 4.9 µM | Ki (Glandular kallikrein): > 1000 µM | Ki (Plasmin): 0.39 µM | growth of developing rat pancreatic carcinomas [2, 4]: decrease | tumor weight [2, 4]: significant reduction | number of detected liver foci, % compared to vehicle-treated control ([2]; i.p., 1 mg/kg daily): 29% | mass of the tumor-containing pancreas, reduced by % ([2]; i.p., 1 mg/kg daily): 76% | masses of the subcutaneous tumors, reduced by % ([2]; i.p., 1 mg/kg daily): 54% | number of metastatic liver foci ([2]; rat pancreatic cancer model, vs vehicle-treated controls): substantially reduced | number of detected liver foci, % compared to vehicle-treated control ([2]; s.c., 1 mg/kg daily): 2% | mass of the tumor-containing pancreas, reduced by % ([2]; s.c., 1 mg/kg daily): 34% | masses of the subcutaneous tumors, reduced by % ([2]; s.c., 1 mg/kg daily): 60% | Ki (Urokinase (sc-urokinase); in vitro inhibition of urokinase, 25° C, pH 8.0, 5% ethanol, read-out: Ki): 0.41 µM | Ki (Urokinase (sc-urokinase); read-out: Ki Urokinase): 0.41 µM | Content Bile ([3]; 1 mg/kg i.p. 5 days): 1.96 µg/mL | Content Brain ([3]; 1 mg/kg i.p. 5 days): <0.5 µg/g | Content Fat/kidney ([3]; 1 mg/kg i.p. 5 days): 0.82 µg/g | Content Heart ([3]; 1 mg/kg i.p. 5 days): <0.5 µg/g | Content Kidney ([3]; 1 mg/kg i.p. 5 days): 2.67 µg/g | Content Liver ([3]; 1 mg/kg i.p. 5 days): 2.85 µg/g | Content Lung ([3]; 1 mg/kg i.p. 5 days): 3.70 µg/g | Content Lymph nodes/trachea ([3]; 1 mg/kg i.p. 5 days): 7.45 µg/g | Content Muscle ([3]; 1 mg/kg i.p. 5 days): 0.74 µg/g | Content Plasma ([3]; 1 mg/kg i.p. 5 days): 0.008 µg/mL | Content Spleen ([3]; 1 mg/kg i.p. 5 days): 2.02 µg/g | Content lymph nodes/axillary ([3]; 1 mg/kg i.p. 5 days): 1.97 µg/g | Content lymph nodes/knee ([3]; 1 mg/kg i.p. 5 days): 7.83 µg/g | Content Bile ([3]; 1 mg/kg i.p. 10 days): 1.75 µg/mL | Content Brain ([3]; 1 mg/kg i.p. 10 days): <0.5 µg/g | Content Fat/kidney ([3]; 1 mg/kg i.p. 10 days): 1.0 µg/g | Content Heart ([3]; 1 mg/kg i.p. 10 days): 1.09 µg/g | Content Kidney ([3]; 1 mg/kg i.p. 10 days): 2.48 µg/g | Content Liver ([3]; 1 mg/kg i.p. 10 days): 2.08 µg/g | Content Lung ([3]; 1 mg/kg i.p. 10 days): 1.81 µg/g | Content Lymph nodes/trachea ([3]; 1 mg/kg i.p. 10 days): 16.38 µg/g | Content Muscle ([3]; 1 mg/kg i.p. 10 days): <0.5 µg/g | Content Plasma ([3]; 1 mg/kg i.p. 10 days): 0.035 µg/mL | Content Spleen ([3]; 1 mg/kg i.p. 10 days): 2.48 µg/g | Content lymph nodes/axillary ([3]; 1 mg/kg i.p. 10 days): 2.74 µg/g | Content lymph nodes/knee ([3]; 1 mg/kg i.p. 10 days): 3.8 µg/g | plasma concentrations relative to the mean tissue concentrations ([3]; 24 h after the last i.p. administration): one to two orders of magnitude below | concentration in tracheal lymph nodes ([3]; after 5 days of administration): 5.3 µg/g and 7.5 µg/g | concentration in tracheal lymph nodes ([3]; after 10 days of administration): 21.6 µg/g and 16.4 µg/g | plasma protein binding [3, 5]: low plasma protein binding | tissue affinity [3, 5]: high tissue affinity | accumulation in lymph nodes ([3]; rat, in vivo): noticeable accumulation
